According to patent US11925612B2, “Bactericidal and virucidal pharmaceutical composition” (Quimica Luar SRL, priority 2015, dated 2024):

Assays:
Assay in all cases: Bactericidal test: CFU count after incubation in PBS buffer
[1] = tested on: P. aeruginosa; format: cell-based, Pseudomonas aeruginosa; details: for Colony count (UFC/mL ± 10) Pseudomonas: Example 9; for P. aeruginosa count (UFC/mL ± 10) As a function of treatment time: 37° C., Example 6; for P. aeruginosa count (UFC/mL ± 10) As a function of treatment time / Colony count (UFC/mL ± 10): control 2,000,000; for Colony count (UFC/mL ± 10) P. aeruginosa: 4-hour at 37° C., control 3,000,000, Example 15; for Colony count (UFC/mL ± 10): 4-hour contact at 37° C., Example 8; for concentration at which the number of CFU/mL decreases to 1000: FIG. 11, Example 12
[2] = tested on: Enterobacter aerogenes; format: cell-based; details: 4-hour contact at 37° C., control 1,000,000, Example 8
[3] = tested on: Bacillus subtilis (Gram+); format: cell-based; details: 4-hour contact at 37° C., control 500,000, Example 8

In the case of `CC(C)Cc1ccc(C(C)C(=O)O)cc1.[Na]` (stereo not shown) [IBU-Na, SODIUM IBUPROFEN], the “P. aeruginosa (UFC/mL ± 10)” value ([1]; IBU-Na 5 mM + ClNa (1M), 1 hour, 37° C. pH 6.5, control 800,000, Example 13) is reported as 16,000 UFC/mL, the “P. aeruginosa (UFC/mL ± 10)” value ([1]; IBU-Na 5 mM + ClNa (1M), 2 hours, 37° C. pH 6.5, control 800,000, Example 13) is reported as 13,000 UFC/mL and the “P. aeruginosa (UFC/mL ± 10)” value ([1]; IBU-Na 5 mM + ClNa (1M), 4 hours, 37° C. pH 6.5, control 800,000, Example 13) is reported as 8,500 UFC/mL. For the same compound, the “Colony count (UFC/mL ± 10) Pseudomonas” value ([1]; IBU-Na 5 mM, 4 hours at 37° C., control 1,700,000) was 1,700,000 UFC/mL, the “P. aeruginosa (UFC/mL ± 10)” value ([1]; IBU-Na 5 mM, Population A (control 200,000), 4 h at 37° C., Example 5) was 150,000 UFC/mL and the “P. aeruginosa (UFC/mL ± 10)” value ([1]; IBU-Na 5 mM, Population B (control 20,000), 4 h at 37° C., Example 5) was 17,000 UFC/mL. For the same compound, the “P. aeruginosa (UFC/mL ± 10)” value ([1]; IBU-Na 10 mM + ClNa (1M), 1 hour, 37° C. pH 6.5, control 800,000, Example 13) was 30 UFC/mL, the “P. aeruginosa (UFC/mL ± 10)” value ([1]; IBU-Na 10 mM + ClNa (1M), 2 hours, 37° C. pH 6.5, control 800,000, Example 13) was 30 UFC/mL and the “Colony count (UFC/mL ± 10) Pseudomonas” value ([1]; IBU-Na 10 mM, 4 hours at 37° C., control 1,700,000) was 760,000 UFC/mL. The “P. aeruginosa count (UFC/mL ± 10) As a function of treatment time” value (shortened to “P. aeruginosa count”) ([1]; IBU-Na 10 mM, Overnight (O.N.)) was 900,000 UFC/mL, the “P. aeruginosa (UFC/mL ± 10)” value ([1]; IBU-Na 10 mM, Population B (control 20,000), 4 h at 37° C., Example 5) was 3,500 UFC/mL and the “P. aeruginosa (UFC/mL ± 10)” value ([1]; IBU-Na 10 mM, Population C (control 2,000), 4 h at 37° C., Example 5) was 800 UFC/mL. The “P. aeruginosa (UFC/mL ± 10)” value ([1]; IBU-Na 10 mM, Without ionic strength, 4 hours at 37° C., control 1,700,000, Example 12) was 760,000 UFC/mL, the “Colony count (UFC/mL ± 10) P. aeruginosa” value ([1]; IBU-Na 12.5 mM + ClNa (1M)) was 250 UFC/mL and the “P. aeruginosa (UFC/mL ± 10)” value ([1]; IBU-Na 20 mM, Population A (control 200,000), 4 h at 37° C., Example 5) was 20,000 UFC/mL. The “P. aeruginosa (UFC/mL ± 10)” value ([1]; IBU-Na 20 mM, Population B (control 20,000), 4 h at 37° C., Example 5) was 400 UFC/mL, the “P. aeruginosa (UFC/mL ± 10)” value ([1]; IBU-Na 20 mM, Population C (control 2,000), 4 h at 37° C., Example 5) was 50 UFC/mL and the “Colony count (UFC/mL ± 10) P. aeruginosa” value ([1]; IBU-Na 25 mM + ClNa (1M)) was 10 UFC/mL. For the same compound, the “P. aeruginosa count” value ([1]; IBU-Na 25 mM, 1 hour) was 500,000 UFC/mL, the “Colony count (UFC/mL ± 10) Pseudomonas” value ([1]; IBU-Na 25 mM, 4 hours at 37° C., control 1,700,000) was 200,000 UFC/mL and the “P. aeruginosa count” value ([1]; IBU-Na 25 mM, 4 hours) was 250,000 UFC/mL. The “P. aeruginosa (UFC/mL ± 10)” value ([1]; IBU-Na 25 mM, Without ionic strength, 4 hours at 37° C., control 1,700,000, Example 12) was 200,000 UFC/mL, the “P. aeruginosa (UFC/mL ± 10)” value ([1]; IBU-Na 30 mM, Population A (control 200,000), 4 h at 37° C., Example 5) was 500 UFC/mL and the “P. aeruginosa (UFC/mL ± 10)” value ([1]; IBU-Na 30 mM, Population B (control 20,000), 4 h at 37° C., Example 5) was 40 UFC/mL. For the same compound, the “P. aeruginosa (UFC/mL ± 10)” value ([1]; IBU-Na 40 mM, Population A (control 200,000), 4 h at 37° C., Example 5) was 100 UFC/mL, the “Colony count (UFC/mL ± 10) P. aeruginosa” value ([1]; IBU-Na 50 mM + ClNa (1M)) was 10 UFC/mL and the “Colony count (UFC/mL ± 10)” value ([1]; IBU-Na 50 mM) was 100 UFC/mL. The “Colony count (UFC/mL ± 10) Pseudomonas” value ([1]; IBU-Na 50 mM, 4 hours at 37° C., control 1,700,000) was 100 UFC/mL, the “P. aeruginosa count” value ([1]; IBU-Na 50 mM, 4 hours) was 30 UFC/mL and the “P. aeruginosa (UFC/mL ± 10)” value ([1]; IBU-Na 50 mM, Without ionic strength, 4 hours at 37° C., control 1,700,000, Example 12) was 100 UFC/mL. The “P. aeruginosa (UFC/mL ± 10)” value ([1]; IBU-Na 50 mM, pH 7.8, 4 h at 37°, control 200,000, Example 7) was 600 UFC/mL, the “Colony count (UFC/mL ± 10)” value ([1]; IBU-Na 100 mM) was 10 UFC/mL and the “P. aeruginosa count” value ([1]; IBU-Na 100 mM, 1 hour) was 2,000 UFC/mL. The “Colony count (UFC/mL ± 10) Pseudomonas” value ([1]; IBU-Na 100 mM, 4 hours at 37° C., control 1,700,000) was 10 UFC/mL, the “concentration at which the number of CFU/mL decreases to 1000” value ([1]; with ionic strength of NaCl 1 M, 4 hours at 37° C.) was “about 5 mM” and the “concentration at which the number of CFU/mL decreases to 1000” value ([1]; without ionic strength, 4 hours at 37° C.) was 25 mM. For the same compound, the “Colony count (UFC/mL ± 10)” value ([2]; IBU-Na 50 mM) was 450 UFC/mL, the “Colony count (UFC/mL ± 10)” value ([2]; IBU-Na 100 mM) was 10 UFC/mL and the “Colony count (UFC/mL ± 10)” value ([3]; IBU-Na 50 mM) was 250 UFC/mL. The “Colony count (UFC/mL ± 10)” value ([3]; IBU-Na 100 mM) was 10 UFC/mL.
